Drawing on patent publication US20090209589A1, “N-[(PYRIDIN-2-YL) METHOXY] HETROCYCLYL CARBOXAMIDE DERIVATIVES AND RELATED COMPOUNDS AS FUNGICIDES” (Bayer Cropscience SA, priority 2006, published 2009), this text covers activity and protection for four compounds.

In assay [1] the test system is Alternaria alternata. In words: Cell test on Alternaria alternata. It is filed as cell-based. The following applies: under similar conditions (2 ppm, OD at 620 nm after 5 days). The procedure:
The growth of Alternaria alternata is performed on PDA medium at 20° C. under black light during 14 days. The PDA medium is prepared by mixing 39 grams of PDA (Merck) in 1 liter of demineralized water.
The medium is sterilized by autoclave 15 minutes at 121° C. After 14 days of growth, the spores of Alternaria alternata are recovered in sterilized water and the concentration of spores adjusted at 10^6 spores per ml.
The compounds is solubilized in DMSO and added to sterile liquid glucose/mycopeptone medium (14.6 g/l of D-glucose, 7.1 g/l of mycological peptone (Oxoid) and 1.4 g/l of yeast extract (Merck)) at a concentration of 2 ppm. The medium is inoculated with the spore suspension at a concentration of 10^5 spores per ml.
The efficacy of the compounds is assessed by OD measurement at 620 nm after 5 days at 20° C. in comparison with a control.

Assay [2] has as its system Pyrenophora teres. Kind of assay: In vivo test on Pyrenophora teres (barley net blotch). The following applies: barley plants, preventive spray, dose of 330 ppm, grading 12 days after contamination. The procedure: The active ingredients tested are prepared by homogenization in a mixture of acetone/tween/DMSO, then diluted with water to obtain the desired active material concentration.
Barley plants (Express variety), sown on a 50/50 peat soil-pozzolana substrate in starter cups and grown at 12° C., are treated at the 1-leaf stage (10 cm tall) by spraying with the active ingredient prepared as described above. Plants, used as controls, are treated with the mixture of acetone/tween/DMSO/water not containing the active material.
After 24 hours, the plants are contaminated by spraying them with an aqueous suspension of Pyrenophora teres spores (12,000 spores per ml). The spores are collected from a 12-day-old culture. The contaminated barley plants are incubated for 24 hours at about 20° C. and at 100% relative humidity, and then for 12 days at 80% relative humidity.
Grading is carried out 12 days after the contamination, in comparison with the control plants.

As to `O=C(NOCc1ncc(C(F)(F)F)cc1Cl)c1c(F)cccc1F` [N-{[3-chloro-5-(trifluoromethyl)pyridin-2-yl]methoxy}-2,6-difluorobenzamide], the activity result in assay [1] is “did not show any activity”.

As for `O=C(NCCc1ccccn1)c1nccc(-n2ccnc2)c1O` [3-hydroxy-4-(1H-imidazol-1-yl)-N-(2-pyridin-2-ylethyl)pyridine-2-carboxamide], the activity result in assay [1] is “did not show any activity”.

For `O=C(NOCc1ncc(C(F)(F)F)cc1Cl)c1c(Cl)cccc1Cl` [2,6-dichloro-N-{[3-chloro-5-(trifluoromethyl)pyridin-2-yl]methoxy}benzamide], in assay [1], the activity entry was “did not show any activity”.

With `Cc1ccsc1C(=O)NOCc1ncc(C(F)(F)F)cc1Cl` [Compound C-1, N-{[3-chloro-5-(trifluoromethyl)pyridin-2-yl]methoxy}-3-methylthiophene-2-carboxamide], the protection entry in assay [2] is “at least 70%”.
